Non-standard residues stand in square brackets, D forms with d. No end group written: not given here.
Experiments:
STZ-diabetic rats = assay: Nerve function, thermal response and body weight in STZ-diabetic rats; format: in vivo, rat; details: for decline in SNCV between weeks 4 and 8 of diabetes: 200 μg/kg i.p. thrice weekly beginning after 4 weeks of diabetes
Method: Control and STZ-diabetic rats were treated using 1000 μg prosaptide TX 14(A) per kg body weights i.p., three times per week for 8 weeks.
In this EXAMPLE, control and STZ-diabetic rats were treated with prosaptide TX 14(A) at doses of 20 μg/kg, 200 μg/kg, and 1000 μg/kg body weight, i.p., three times per week for 8 weeks. The rats were weighed at the beginning, midpoint and the end of the experiment and motor nerve conduction (MNCV) and sensor nerve conduction velocity (SNCV) measurements were taken at the three time points.
These deficits were attenuated by thrice weekly treatment (1 mg/kg i.p. for 8 weeks) with prosaptide (58.1±1.2 and 54.9±1.3 respectively).
(§1) This EXAMPLE was designed to determine whether prosaptide could also reverse conduction deficits and hyperalgesia in the formalin test pain model once these disorders are established in diabetic rats. SNCV was measured before onset of diabetes and 4-8 weeks later in groups of control, untreated diabetic and prosaptide-treated (200 μg/kg i.p. thrice weekly for the last 4 weeks) diabetic rats. Flinch responses to injection of formalin (50 μl or 0.5% or 5.0% solution) were followed for 60 min in control, 8 week untreated diabetic, 8 week diabetic treated with prosaptide (200 μg/kg i.p.) 30 min pre-test and 8 week diabetic treated with prosaptide (200 μg/kg i.p.) thrice weekly for the last 4 weeks (the last treatment being 48-72 hr pre-test).

[1] = system: streptozotocin (STZ)-diabetic rats; assay: Formalin flinch test in streptozotocin-diabetic rats; format: in vivo, rat; set-up: hyperalgesia in formalin test / formalin-induced pain (allodynia): dose or concentration left out as unconfirmed
Method: Rats were made diabetic by a single intraperitoneal injection of streptozotocin (STZ) (50 mg/kg body weight, freshly dissolved in 0.9% sterile saline) to ablate pancreatic β cells and induce insulin deficiency as described in Calcutt et al., Pain 68:293-299 (1996). Two days later, diabetes was confirmed in streptozotocin-injected rats by measuring blood glucose levels. Streptozotocin-injected animals with a blood glucose concentration below 15 mmol/l were excluded from subsequent studies, according to the commonly accepted definition of non-fasting hyperglycemia in studies of diabetes in rats.
Both diabetic and control rats were studied at 8 weeks by analyzing the behavioral response to the noxious chemical formalin as an indicator of allodynia (Calcutt et al. supra (1996)). Briefly, rats received a subcutaneous injection of freshly-prepared formalin (50 μl of 0.5% solution in sterile saline) into the dorsal surface of the right hind paw. This concentration of formalin induces sub-maximal behavioral responses in control rats and allows detection of hyperalgesia in diabetic rats during phases Q and 2 (Calcutt et al., Eur. J. Pharmacol. 285:189-197 (1995). Animals were transferred to an observation chamber constructed to allow continuous visualization of the paws. The number of flinches during one minute periods were counted at 5 minute intervals for the next 60 minutes by an observer who was unaware of the treatment group of each animal. Phase 1 was defined as the initial measurement of flinching (1-2 and 5-6 minutes post injection); the Q (quiescent) phase as the measurements made at 10-11, 15-16 and 20-21 minutes; and Phase 2 as all subsequent measurements post injection, as previously defined for studies of diabetic rats (see, for example, Malmberg et al., Neurosci. […] Comparisons of activity during each phase were made by summing the flinches at measurement points within the phase. Diabetic rats gave an abnormal flinch response, as has been reported previously.
Peptide SEQ ID NO:2 was obtained in pure form by chemical synthesis, dissolved in sterile PBS and buffered to a neutral pH. Diabetic rats were divided in two groups of four animals each, which were administered saline or peptide SEQ ID NO:2, respectively.
The formalin testing was done after 4 weeks, of three time weekly injections, and testing was done after the last dose (last bar, FIG. 7).
as §1, with “8 week diabetic treated with prosaptide (200 μg/kg i.p.) 30 min pre-test and 8 week diabetic treated” left out

neuroblastoma cells = assay: Neurotrophic activity (neurite outgrowth, choline acetyltransferase, cell death); format: cell-based
Selzer rat model = assay: Hyperalgesia (hot plate withdrawal) in Selzer model rats; format: in vivo; details: intravenous at a dose of 200 mg/kg
Method: After induction of hyperalgesia by ligation of the sciatic nerve in one hind limb, the animals were injected with Prosaptide TX 14(A). Relief was measured using the hot plate withdrawal technique comparing ligated vs. unligated hind foot withdrawal. […] The relief lasted for up to 48 hours post injection.

Schwann cells = assay: Schwann cell death in culture (inhibition of demyelination); format: cell-based
From the text: Reduction of Schwann cell death is correlated with inhibition of demyelination. Schwann cells contain an extensive myelin sheath.

[2] = system: Newborn mouse cerebellar explants; assay: Ex vivo myelination assay in newborn mouse cerebellar explants; format: cell-based; details: 10 μg/ml
Method: Newborn mouse cerebellar explants are prepared according to Satomi, Zool. Sci. 9:127-137 (1992). Neurite outgrowth and myelination are observed over 22 days in culture, during the period when the newborn mouse cerebellum normally undergoes neuronal differentiation and myelination begins. […] Neurite outgrowth and myelination in three control and three treated explants is assessed under a bright field microscope with a video camera. On the eighth day, cultures containing the peptides are thinner and more spread out than control cultures. […] Such projections are absent or less prominent in control cultures. […] Thus, the peptide of the invention induces myelination in differentiating cerebellum ex vivo.

[3] = 1 mg/kg i.p. thrice weekly for 8 weeks, diabetic rats
[4] = 200 μg/kg intraperitoneal, two hours before 0.5% formalin

## T[dA]LIDNNATEEILY [SEQ ID NO:2]
STZ-diabetic rats; 20 μg treatment group
  thermal response latency: intermediate response
STZ-diabetic rats; listed as prosaptide
  decline in SNCV between weeks 4 and 8 of diabetes: prevents any further decline in SNCV
STZ-diabetic rats; listed as prosaptide TX 14(A)
  decline in SNCV between weeks 4 and 8 of diabetes: halts progressive slowing of sensory conduction
STZ-diabetic rats; 1000 μg per kg i.p., three times per week for 8 weeks
  thermal hypoalgesia: prevented hypoalgesia
STZ-diabetic rats; 1000 μg per kg i.p., three times per week for 8 weeks (EXAMPLE XIV)
  hyperglycemia and loss of body weight: did not prevent hyperglycemia or loss of body weight
STZ-diabetic rats; [3]
  MNCV: 58.1±1.2 m/s
  SNCV: 54.9±1.3 m/s
  thermal response latency (thermal hypoalgesia): 8.8 ± 0.6 s
STZ-diabetic rats; 20, 200 and 1000 μg/kg i.p., three times per week for 8 weeks
  weight loss compared to diabetic animals: significant decreases in weight loss in a dose dependent manner
STZ-diabetic rats; 200 and 1000 μg
  thermal response latency: restored to control non-diabetic levels
STZ-diabetic rats; 200 and 1000 μg/kg, compared to untreated diabetic group and 20 μg/kg
  motor nerve conduction velocities: enhanced motor nerve conduction velocities
STZ-diabetic rats; all treated groups (20, 200, 1000 μg/kg)
  loss of sensory nerve conduction velocity: slower loss of sensory nerve conduction velocity
STZ-diabetic rats; time course study, thrice weekly 20, 200 or 1000 μg i.p.
  thermal hypoalgesia and decline in nerve conduction velocities during 8 weeks of diabetes: attenuated by prosaptide in a dose-dependent manner
[1]; 200 μg/kg i.p. thrice weekly for the last 4 weeks, last treatment 48-72 hr pre-test
  hyperalgesia during the formalin test: reduction in hyperalgesia
[1]; [4]
  abnormal flinch response in Phase 1: completely prevented the abnormal flinch response
  amelioration of the flinch response in Phase 2: 70%
[1]; after 8 weeks of diabetes, i.p. 30 min before testing
  hyperalgesia in formalin test: reversed the hyperalgesia
[1]; given parenterally, FIG. 7
  hyperalgesia in the diabetic rat: reverses hyperalgesia
[1]; single bolus 200 μg/kg i.p. 30 min pre-test, 8 week diabetic rats
  hyperalgesia during the formalin test: effective in abolishing hyperalgesia
[1]; three time weekly injections for 4 weeks
  formalin-induced pain (allodynia): prevention of formalin-induced pain (allodynia)
Neuroblastoma cells
  neurotrophic activity: have neurotrophic activity
Selzer rat model
  duration of relief post injection: up to 48 hours
  relief of hyperalgesia: nearly complete relief of hyperalgesia
  time after injection to relief: ≤ 3 h
Schwann cells
  Schwann cell death: reduces Schwann cell death in a dose-dependent manner
[2]; 22 days, compared to control explants
  myelinated axons in the subcortical white matter: significantly more myelinated axons
[2]; day 15
  neurite outgrowth (long projections) in explants: contain many cells with long projections at the periphery of the explant

Reference: patent publication US6849602B1 (The Regents of the University of California, priority 1996, dated 2005)
